Article PMC6033896, “Discovery of Mcl-1 inhibitors from integrated high throughput and virtual screening” (Scientific Reports, 2018)

Legend:
Mcl-1 protein = biological target: T1, Mcl-1 protein (Homo sapiens, UniProt Q07820); assay: TR-FRET binding assay with Bid-Dy647 peptide; conditions: 10 nM Mcl-1, 10 nM Bid-Dy647
T1 construct: human Mcl-1 (residues 171–323); His tag (pHis-TEV vector) (N, cleaved yes); made in house; host or cells: E. coli BL21 (DE3)
Protocol: TR-FRET was performed using black 384-well plates in an Envision Multilabel plate reader (Perkin Elmer Life Sciences). To each well, a mixture of 10 nM Bid-Dy647 peptide (79–99), 10 nM Mcl-1 protein, and Europium-anti-His antibody were added to a final volume of 25 μl in the assay buffer (20 mM potassium phosphate, pH 7.5; 50 mM NaCl, 1 mM EDTA and 0.05% Pluronic F68). The TR-FRET signals were measured with an Envision Multilabel plate reader after 2 h of incubation. (Ex 340 nm, Em615 nm and Em665 nm) and expressed as FRET signal ratio (F665 nm/[…] * 104)

Bcl-xL = biological target: T2, Bcl-xL (Homo sapiens, UniProt Q07817, DEL45-85); assay: FP-based competitive binding assay with FAM-Bid; conditions: for IC50 / Ki: FP
T2 construct: His tag (pHis-TEV vector) (N, cleaved yes); made in house; host or cells: E. coli BL21 (DE3)
T2 sequence (Q07817 with tags, fused parts or gaps DEL45-85 limits assumed): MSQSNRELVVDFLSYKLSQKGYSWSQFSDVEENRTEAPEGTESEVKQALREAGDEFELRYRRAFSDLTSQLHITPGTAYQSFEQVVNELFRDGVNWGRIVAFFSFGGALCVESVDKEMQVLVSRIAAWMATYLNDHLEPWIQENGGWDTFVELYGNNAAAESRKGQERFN
Protocol: (§1) FP-based binding assays were developed and optimized to determine the binding affinities of inhibitors to the recombinant Mcl-1, Bcl-2, Bcl-xL, and Bfl-1, proteins. […] The fluorescent Bid probe was fixed at 2 nM for all assays, except for Bfl-1, where 1 nM was used. 5 μL of the tested compound in DMSO and 120 μL of protein/probe complex in the assay buffer were added to assay plates (Corning #3792), incubated at room temperature for 3 h, and the polarization values (mP) were measured at an excitation wavelength of 485 nm and an emission wavelength of 530 nm using the plate reader Synergy H1 Hybrid, BioTek. IC50 values were determined by nonlinear regression fitting of the competition curves (GraphPad Prism 6.0 Software). The Ki values were calculated as described previously.
(§2) 1. List of compounds purchased from vendors
(§3) Compound s 5, 6, 7, 8 and S3, S4, S5, S6 S7, S8, S9, S10, S17 were purchased from […]
(§4) Compound s 9, 10, 11 and S11, S12, S13 were purchased from I nterbioscreen […]
(§5) His-tagged proteins containing human Mcl-1 (residues 171–323), the isoform 2 construct of the human Bcl-2 [Bcl2-2 construct for protein production starts with the Bcl2 sequence of 1-34 a a, followed by the Bcl-xL seq uence of 35-50 aa, and ends with the Bcl-2 sequenc e of 92-202aa.], Bcl-xL (Human Bcl-xL protein, which has an internal deletion for the 45 -85 amino acid residues and a C -terminal truncation for the amino acid residues 212-233), and Bf l-1 (residues 1-151), were expres sed from the pHis -TEV vector (a modified pET vector) in E. coli BL21 (DE3) cells. Cells were grown at 37 °C in 2×YT containing antibiotics to an OD600 density of 1.5, 1 and 0.8 for Mcl-1, Bcl-xL and Bcl-2 respectively. Protein expression wa s induced by 0 .4 mM IPTG at 20 °C overnight for all proteins except for Bf l-1 which was e xpressed at 3 7 °C for four hours . Cells were lysed in 20 mM HEPES pH 7.5, 200 mM NaCl, 0.1% βME with Leupeptin/Aprotinin (Mcl-1), 25mM Tris pH 8.5, 200mM NaCl (Bcl-2), 50mM Tris pH 7.5, 200 mM NaCl (Bcl-xL) and 50 mM Tris pH 8, 500 mM NaCl, 0. 1% βME with Leupeptin/Aprotinin (Bf l-1). All

Bfl-1 = biological target: T3, Bfl-1 (Homo sapiens, UniProt Q16548); assay: FP-based competitive binding assay with FAM-Bid; conditions: for IC50: Bfl-1
T3 construct: Bf l-1 (residues 1-151); His tag (pHis-TEV vector) (N, cleaved yes); made in house; host or cells: E. coli BL21 (DE3)
T3 sequence (Q16548 1-151): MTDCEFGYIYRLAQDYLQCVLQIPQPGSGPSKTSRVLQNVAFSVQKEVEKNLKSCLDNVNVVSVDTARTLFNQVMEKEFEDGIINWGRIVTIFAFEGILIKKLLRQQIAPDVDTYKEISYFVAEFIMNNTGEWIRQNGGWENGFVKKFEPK
Protocol: as §1, §2, §3, §4, §5

Bcl-2 = biological target: T4, Bcl-2 (Homo sapiens, UniProt P10415, DEL35-91/INS34DVEENRTEAPEGTESE); assay: FP-based competitive binding assay with FAM-Bid; conditions: FP
T4 construct: His tag (pHis-TEV vector) (N, cleaved yes); made in house; host or cells: E. coli BL21 (DE3)
T4 sequence (P10415 with tags, fused parts or gaps INS34DVEEN/V35R/G36T/A37E/P40E/DEL42-87/P88T/V89E/P90S/P91E): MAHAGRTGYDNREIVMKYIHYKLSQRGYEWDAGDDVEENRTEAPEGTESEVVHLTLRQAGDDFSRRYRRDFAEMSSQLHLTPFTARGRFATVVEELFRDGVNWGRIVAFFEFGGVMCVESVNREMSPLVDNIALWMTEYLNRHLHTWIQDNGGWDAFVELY
Protocol: as §1, §2, §3, §4, §5

T1 sequence (Q07820 171-323): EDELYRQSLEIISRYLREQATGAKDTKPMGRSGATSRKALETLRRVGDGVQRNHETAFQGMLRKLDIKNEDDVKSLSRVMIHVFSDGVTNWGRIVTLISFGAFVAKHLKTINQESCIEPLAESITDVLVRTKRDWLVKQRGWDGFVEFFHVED

## O=C(CSc1nnc(-c2ccco2)c(-c2ccco2)n1)Nc1ccccc1 [Compound 19]
Mcl-1 protein
  IC50: 11.9 ± 3.7 µM
Bcl-xL
  IC50: > 100 µM
  Ki: > 20 µM
Bfl-1
  IC50: 35.6 ± 8.6 µM
Bfl-1; FP
  Ki: 4.9 µM
  binding to Bfl-1 compared with Mcl-1: lower binding to Bfl-1 in comparison to Mcl-1
Bcl-2
  IC50: > 100 µM
  Ki: > 25 µM

## O=C(CSc1nnc(-c2ccco2)c(-c2ccco2)n1)Nc1cccc(C(F)(F)F)c1 [Compound 39]
Mcl-1 protein
  IC50: 7.1 ± 2.8 µM
Bcl-xL
  IC50: > 100 µM
  Ki: > 20 µM
Bcl-xL; ratio of Ki
  fold lower binding affinity to Bcl-xL than to Mcl-1: > 17 fold
Bfl-1
  IC50: 75.9 ± 6.2 µM
Bfl-1; FP
  Ki: 10.4 µM
Bfl-1; ratio of Ki
  fold lower binding affinity to Bfl-1 than to Mcl-1: 8 fold
Bcl-2
  IC50: > 100 µM
  Ki: > 25 µM

## c1ccc(CCCCSc2nnc(-c3ccco3)c(-c3ccco3)n2)cc1 [Compound 44]
Mcl-1 protein
  IC50: 2.5 ± 0.1 µM
Bcl-xL
  IC50: > 100 µM
  Ki: > 20 µM
Bfl-1
  IC50: 5.1 ± 0.1 µM
Bfl-1; FP
  Ki: 0.7 ± 0.1 µM
Bcl-2
  IC50: > 100 µM
  Ki: > 25 µM
